# Measured values as given in patent US20100041089A1, “IMPROVED METHOD FOR DETECTING CHEMICAL […]” (priority 2006, published 2010).
# System: yeast genes (expressed mRNA)
# Experiment: DNA chip measurement of expressed mRNA of yeast genes after culture with a toxic chemical substance
# Type: cell-based, Saccharomyces cerevisiae S288C
# Conditions: for level of expressed mRNA in the presence of chemical substance / level in the absence of chemical substance: cultured two hours with the chemical substance; for The level of expressed mRNA in the presence of chemical substance/The level of expressed mRNA in the absence of chemical substance: cultured two hours with substance
# Protocol: Yeast (Saccharomyces cerevisiae S288C (a SUC2mal mel gap2 CUP1)) were cultured at 25° C. on YPD medium (yeast extract 1%, polypeptone 2%, glucose 2%). One of toxic chemical substances was added to the cell at logarithmic growth phase, and the cell was further cultured for two hours. Cell was cultured without any chemical substance in the same condition, and was used as a control. Concentrations of the chemical substances were defined to inhibit the growth of the yeast but not lead to death.
# After the completion of cultivation, the culture was centrifuged to collect the cells. To the cells, sodium acetate buffer (50 mM sodium acetate, 10 mM EDTA, 1% SDS) was added, and the mixture was shaken at 65° C. for five minutes, followed by returning to room temperature, and obtaining the supernatant, which procedure was repeated two times. To the supernatant, ½ amount of a solution of phenol/chloroform (1:1) was added, and the mixture was centrifuged to give a supernatant, an equal amount of chloroform was added, and the mixture was centrifuged to give a supernatant. To the supernatant, an equal amount of isopropanol containing 0.3 M sodium acetate was added, and the mixture was allowed to stand at room temperature for 30 minutes, after which the mixture was centrifuged to give sediment of the whole RNAs. Seventy % ethanol was added to the sediment, and the mixture was again centrifuged to give sediment, which was then dried and dissolved in water. mRNA was isolated from the whole RNAs as followings. In view of the fact that a poly A chain is attached to the 3′ terminus of mRNA, a polynucleotide having a poly T structure which was immobilized on the surface of latex beads was used to trap the mRNA, and then the mRNA was washed and eluted with spine column (Oligotex-dT30<Super>mRNA Purification Kit, Takara). Reverse transcription of the mRNA was conducted with a reverse transcriptase (Super Script II Reverse Transcriptase; catalogue No. 18064-014, GibcoBRL) using fluorescence-labeled nucleotides to give cDNAs that were introduced with Cy3-dUTP or Cy5-dUTP during the reverse transcription.
# The labeled cDNAs were dissolved in TE buffer (10 mM Tris-HCl/1 mM EDTA, pH 8.0), and the solution was dropped on the DNA chip containing the whole genes of yeast (DNA Chip Research Inc. Japan) so that the cDNAs were hybridized on the DNA chip at 65° C. for over 12 hours. The fluoresces intensity of the DNA chip was read with a scanner, and the ratio relative to the fluorescence intensity resulting from the absence of chemical substance was estimated as the following, which is shown in Tables 1 to 9.
# In the Tables, “Intensity” indicated in the rightmost column is a value of the level of expressed mRNA of each gene in control cells as divided by the average level of the expressions of the whole genes. A gene of which mRNA level is lower in control, and is higher in cases of addition of chemical substance, is especially useful in the detection of toxic substances.
# Here, when a ratio of an amount of mRNA expressed in the presence of the chemical substance to an amount of mRNA expressed in the absence of the chemical substance is two or more, then it is considered significant.
structure (smiles),measurement,setting,value
"[Cl][Pb][Cl] [(4), PbCl2]","The level of expressed mRNA in the presence of chemical substance/The level of expressed mRNA in the absence of chemical substance, yeast gene YBR036C","gene YBR036C, Metabolism protein genes, DNA chip fluorescence ratio",1.2
same,"The level of expressed mRNA in the presence of chemical substance/The level of expressed mRNA in the absence of chemical substance, yeast gene YBR298C","gene YBR298C, Metabolism protein genes, DNA chip fluorescence ratio",2.3
same,"The level of expressed mRNA in the presence of chemical substance/The level of expressed mRNA in the absence of chemical substance, yeast gene YDL067C","gene YDL067C (mitochondria-located protein gene), yeast cultured two hours with chemical substance, DNA chip fluorescence ratio to control",1.3
same,"The level of expressed mRNA in the presence of chemical substance/The level of expressed mRNA in the absence of chemical substance, yeast gene YDL078C","gene YDL078C, Metabolism protein genes, DNA chip fluorescence ratio",0.8
same,"The level of expressed mRNA in the presence of chemical substance/The level of expressed mRNA in the absence of chemical substance, yeast gene YDL215C","gene YDL215C, Metabolism protein genes, DNA chip fluorescence ratio",1.6
same,"The level of expressed mRNA in the presence of chemical substance/The level of expressed mRNA in the absence of chemical substance, yeast gene YDR079W","gene YDR079W (mitochondria-located protein gene), yeast cultured two hours with chemical substance, DNA chip fluorescence ratio to control",1.1
same,"The level of expressed mRNA in the presence of chemical substance/The level of expressed mRNA in the absence of chemical substance, yeast gene YDR297W","gene YDR297W, Metabolism protein genes, DNA chip fluorescence ratio",1.1
same,"The level of expressed mRNA in the presence of chemical substance/The level of expressed mRNA in the absence of chemical substance, yeast gene YDR387C","gene YDR387C, Metabolism protein genes, DNA chip fluorescence ratio",2.2
same,"The level of expressed mRNA in the presence of chemical substance/The level of expressed mRNA in the absence of chemical substance, yeast gene YGL035C","gene YGL035C, Metabolism protein genes, DNA chip fluorescence ratio",1.4
same,"The level of expressed mRNA in the presence of chemical substance/The level of expressed mRNA in the absence of chemical substance, yeast gene YGR062C","gene YGR062C (mitochondria-located protein gene), yeast cultured two hours with chemical substance, DNA chip fluorescence ratio to control",1.4
same,"The level of expressed mRNA in the presence of chemical substance/The level of expressed mRNA in the absence of chemical substance, yeast gene YGR287C","gene YGR287C, Metabolism protein genes, DNA chip fluorescence ratio",1.5
same,"The level of expressed mRNA in the presence of chemical substance/The level of expressed mRNA in the absence of chemical substance, yeast gene YJL070C","gene YJL070C, Metabolism protein genes, DNA chip fluorescence ratio",1.2
same,"The level of expressed mRNA in the presence of chemical substance/The level of expressed mRNA in the absence of chemical substance, yeast gene YJL096W","gene YJL096W (mitochondria-located protein gene), yeast cultured two hours with chemical substance, DNA chip fluorescence ratio to control",1.3
same,"The level of expressed mRNA in the presence of chemical substance/The level of expressed mRNA in the absence of chemical substance, yeast gene YJL180C","gene YJL180C (mitochondria-located protein gene), yeast cultured two hours with chemical substance, DNA chip fluorescence ratio to control",1.3
same,"The level of expressed mRNA in the presence of chemical substance/The level of expressed mRNA in the absence of chemical substance, yeast gene YKR009C","gene YKR009C, Metabolism protein genes, DNA chip fluorescence ratio",0.9
same,"The level of expressed mRNA in the presence of chemical substance/The level of expressed mRNA in the absence of chemical substance, yeast gene YLR295C","gene YLR295C (mitochondria-located protein gene), yeast cultured two hours with chemical substance, DNA chip fluorescence ratio to control",1.7
same,"The level of expressed mRNA in the presence of chemical substance/The level of expressed mRNA in the absence of chemical substance, yeast gene YLR351C","gene YLR351C, Metabolism protein genes, DNA chip fluorescence ratio",1.5
same,"The level of expressed mRNA in the presence of chemical substance/The level of expressed mRNA in the absence of chemical substance, yeast gene YLR375W","gene YLR375W, Metabolism protein genes, DNA chip fluorescence ratio",0.9
same,"The level of expressed mRNA in the presence of chemical substance/The level of expressed mRNA in the absence of chemical substance, yeast gene YMR023C","gene YMR023C (mitochondria-located protein gene), yeast cultured two hours with chemical substance, DNA chip fluorescence ratio to control",1.9
same,"The level of expressed mRNA in the presence of chemical substance/The level of expressed mRNA in the absence of chemical substance, yeast gene YMR267W","gene YMR267W (mitochondria-located protein gene), yeast cultured two hours with chemical substance, DNA chip fluorescence ratio to control",0.9
same,"The level of expressed mRNA in the presence of chemical substance/The level of expressed mRNA in the absence of chemical substance, yeast gene YMR267W","gene YMR267W, Metabolism protein genes, DNA chip fluorescence ratio",0.9
same,"The level of expressed mRNA in the presence of chemical substance/The level of expressed mRNA in the absence of chemical substance, yeast gene YMR278W","gene YMR278W, Metabolism protein genes, DNA chip fluorescence ratio",1.0
same,"The level of expressed mRNA in the presence of chemical substance/The level of expressed mRNA in the absence of chemical substance, yeast gene YMR293C","gene YMR293C, Metabolism protein genes, DNA chip fluorescence ratio",2.2
same,"The level of expressed mRNA in the presence of chemical substance/The level of expressed mRNA in the absence of chemical substance, yeast gene YNL073W","gene YNL073W (mitochondria-located protein gene), yeast cultured two hours with chemical substance, DNA chip fluorescence ratio to control",1.7
same,"The level of expressed mRNA in the presence of chemical substance/The level of expressed mRNA in the absence of chemical substance, yeast gene YNR072W","gene YNR072W, Metabolism protein genes, DNA chip fluorescence ratio",0.7
same,"The level of expressed mRNA in the presence of chemical substance/The level of expressed mRNA in the absence of chemical substance, yeast gene YOL096C","gene YOL096C, Metabolism protein genes, DNA chip fluorescence ratio",1.6
same,"The level of expressed mRNA in the presence of chemical substance/The level of expressed mRNA in the absence of chemical substance, yeast gene YOR180C","gene YOR180C, Metabolism protein genes, DNA chip fluorescence ratio",1.0
same,"The level of expressed mRNA in the presence of chemical substance/The level of expressed mRNA in the absence of chemical substance, yeast gene YOR316C","gene YOR316C (mitochondria-located protein gene), yeast cultured two hours with chemical substance, DNA chip fluorescence ratio to control",1.5
same,"The level of expressed mRNA in the presence of chemical substance/The level of expressed mRNA in the absence of chemical substance, yeast gene YOR363C","gene YOR363C, Metabolism protein genes, DNA chip fluorescence ratio",1.3
same,"The level of expressed mRNA in the presence of chemical substance/The level of expressed mRNA in the absence of chemical substance, yeast gene YPL040C","gene YPL040C (mitochondria-located protein gene), yeast cultured two hours with chemical substance, DNA chip fluorescence ratio to control",1.7
same,"The level of expressed mRNA in the presence of chemical substance/The level of expressed mRNA in the absence of chemical substance, yeast gene YPL134C","gene YPL134C (mitochondria-located protein gene), yeast cultured two hours with chemical substance, DNA chip fluorescence ratio to control",1.6
same,"The level of expressed mRNA in the presence of chemical substance/The level of expressed mRNA in the absence of chemical substance, yeast gene YPR184W","gene YPR184W, Metabolism protein genes, DNA chip fluorescence ratio",2.2
same,level of expressed mRNA in the presence of chemical substance / level in the absence of chemical substance,yeast gene YAL018C,11.3
same,The level of expressed mRNA in the presence of chemical substance/The level of expressed mRNA in the absence of chemical substance,yeast gene YAL053W,2.1
same,level of expressed mRNA in the presence of chemical substance / level in the absence of chemical substance,yeast gene YAR047C,0.7
same,level of expressed mRNA in the presence of chemical substance / level in the absence of chemical substance,yeast gene YAR064W,2.8
same,level of expressed mRNA in the presence of chemical substance / level in the absence of chemical substance,yeast gene YBL044W,0.8
same,The level of expressed mRNA in the presence of chemical substance/The level of expressed mRNA in the absence of chemical substance,yeast gene YBL048W,2.8
same,The level of expressed mRNA in the presence of chemical substance/The level of expressed mRNA in the absence of chemical substance,yeast gene YBL107C,1.5
same,level of expressed mRNA in the presence of chemical substance / level in the absence of chemical substance,yeast gene YBR012C,0.8
same,level of expressed mRNA in the presence of chemical substance / level in the absence of chemical substance,yeast gene YBR066C,1.6
same,level of expressed mRNA in the presence of chemical substance / level in the absence of chemical substance,yeast gene YBR124W,0.4
same,level of expressed mRNA in the presence of chemical substance / level in the absence of chemical substance,yeast gene YBR162C,0.8
same,level of expressed mRNA in the presence of chemical substance / level in the absence of chemical substance,yeast gene YBR287W,2.4
same,level of expressed mRNA in the presence of chemical substance / level in the absence of chemical substance,yeast gene YCL056C,1.0
same,level of expressed mRNA in the presence of chemical substance / level in the absence of chemical substance,yeast gene YCR007C,2.9
same,level of expressed mRNA in the presence of chemical substance / level in the absence of chemical substance,yeast gene YDL046W,1.3
same,The level of expressed mRNA in the presence of chemical substance/The level of expressed mRNA in the absence of chemical substance,yeast gene YDL072C,2.1
same,The level of expressed mRNA in the presence of chemical substance/The level of expressed mRNA in the absence of chemical substance,yeast gene YDL204W,3.4
same,The level of expressed mRNA in the presence of chemical substance/The level of expressed mRNA in the absence of chemical substance,yeast gene YDL222C,3.9
same,level of expressed mRNA in the presence of chemical substance / level in the absence of chemical substance,yeast gene YDR090C,1.2
same,level of expressed mRNA in the presence of chemical substance / level in the absence of chemical substance,yeast gene YDR128W,0.9
